Test results reported in ChEMBL document CHEMBL1201862, “PubChem BioAssay data set” (2004).
Calls of active or inactive are those of the source.

Tests used:
[1] = target: Phosphomannomutase 2 (Homo sapiens, UniProt O15305); test: Counter screen SAR assay for PMM2 inhibitors via a fluorescence intensity assay. [Related pubchem assays (depositor defined):AID1545, AID1574]
[2] = target: DNA dC->dU-editing enzyme APOBEC-3G (Homo sapiens, UniProt Q9HC16); format: functional;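 also: Dose-response counterscreen measuring inhibition of APOBEC3G DNA deaminase activity, run while confirming APOBEC3A inhibitors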
[3] = target: DNA dC->dU-editing enzyme APOBEC-3A (Homo sapiens, UniProt P31941); test: Dose Response confirmation of small molecule APOBEC3A DNA Deaminase Inhibitors via a fluorescence-based single-stranded DNA deaminase assay. [Related pubchem assays (depositor defined):AID493011, AID493024]; format: functional
[4] = target: T1, Dual specificity protein phosphatase 6 (Rattus norvegicus, UniProt Q64346); format: functional;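 also: confirmatory in vitro dose-response testing of MKP-3 inhibition; recombinant His-tagged MKP-3 made in E. coli BL21 with OMFP substrate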
T1 sequence (Q64346 whole entry): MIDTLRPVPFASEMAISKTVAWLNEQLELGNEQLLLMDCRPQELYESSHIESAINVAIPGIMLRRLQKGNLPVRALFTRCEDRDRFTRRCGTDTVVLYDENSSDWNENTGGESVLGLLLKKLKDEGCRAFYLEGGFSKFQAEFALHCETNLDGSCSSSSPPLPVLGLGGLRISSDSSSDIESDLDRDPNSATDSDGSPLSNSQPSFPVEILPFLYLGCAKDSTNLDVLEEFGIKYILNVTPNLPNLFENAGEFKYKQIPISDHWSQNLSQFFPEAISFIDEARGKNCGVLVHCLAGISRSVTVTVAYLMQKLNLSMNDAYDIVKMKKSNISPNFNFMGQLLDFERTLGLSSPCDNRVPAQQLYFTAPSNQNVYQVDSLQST

[5] = target: Dual specificity protein phosphatase 3 (Homo sapiens, UniProt P51452); test: SAR VHR1 Fluorescent Assay for In Vitro dose response studies Set 2. [Related pubchem assays (depositor defined):AID1654, AID1661, AID1878]; format: functional
[6] = target: T2, Tyrosine-protein phosphatase non-receptor type 7 (Homo sapiens, UniProt P35236); test: redox-dependent HePTP inhibition, mechanism study, biochemical, fluorescence (AID 2068); format: functional
T2 sequence (P35236 whole entry): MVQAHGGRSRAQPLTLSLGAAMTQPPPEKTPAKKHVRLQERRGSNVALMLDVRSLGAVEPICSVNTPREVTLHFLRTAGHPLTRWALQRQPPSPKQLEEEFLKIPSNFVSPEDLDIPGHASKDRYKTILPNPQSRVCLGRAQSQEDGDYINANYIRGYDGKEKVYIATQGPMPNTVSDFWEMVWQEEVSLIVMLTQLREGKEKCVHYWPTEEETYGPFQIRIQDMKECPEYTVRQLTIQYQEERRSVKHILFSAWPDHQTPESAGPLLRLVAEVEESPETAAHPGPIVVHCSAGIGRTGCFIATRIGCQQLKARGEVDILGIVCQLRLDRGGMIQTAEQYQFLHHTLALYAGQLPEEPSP

[7] = target: Perilipin-1/ABHD5 (Homo sapiens, UniProt O60240+Q8WTS1); test: Luminescence-based biochemical high throughput dose response assay for inhibitors of the interaction of the lipase co-activator protein, abhydrolase domain containing 5 (ABHD5) with perilipin-1 (PLIN1) (2K validation set). [Related pubchem assays (depositor defined):AID493027, AID493057]
[8] = target: Cytochrome P450 2C9 (Homo sapiens, UniProt P11712)
[9] = target: 1-acylglycerol-3-phosphate O-acyltransferase ABHD5/Perilipin-5 (Homo sapiens, UniProt Q00G26+Q8WTS1); test: Luminescence-based biochemical high throughput dose response assay for inhibitors of the interaction of the lipase co-activator protein, abhydrolase domain containing 5 (ABHD5) with perilipin-5 (MLDP; PLIN5) (2K validation set). [Related pubchem assays (depositor defined):AID493035, AID493241]
[10] = target: Troponin, cardiac muscle (Homo sapiens, UniProt P19429+P45379+P63316); test: Fluorescence-based biochemical high throughput dose response assay for activators of the calcium sensitivity of cardiac Regulated Thin Filaments (RTF). [Related pubchem assays (depositor defined):AID493008, AID493018, AID504382, AID504383]; format: protein-complex assay
[11] = target: T3, Coagulation factor XII (Homo sapiens, UniProt P00748); test: FXIIa inhibitor potency, concentration-response, biochemical (AID 716); format: functional
T3 sequence (P00748 whole entry): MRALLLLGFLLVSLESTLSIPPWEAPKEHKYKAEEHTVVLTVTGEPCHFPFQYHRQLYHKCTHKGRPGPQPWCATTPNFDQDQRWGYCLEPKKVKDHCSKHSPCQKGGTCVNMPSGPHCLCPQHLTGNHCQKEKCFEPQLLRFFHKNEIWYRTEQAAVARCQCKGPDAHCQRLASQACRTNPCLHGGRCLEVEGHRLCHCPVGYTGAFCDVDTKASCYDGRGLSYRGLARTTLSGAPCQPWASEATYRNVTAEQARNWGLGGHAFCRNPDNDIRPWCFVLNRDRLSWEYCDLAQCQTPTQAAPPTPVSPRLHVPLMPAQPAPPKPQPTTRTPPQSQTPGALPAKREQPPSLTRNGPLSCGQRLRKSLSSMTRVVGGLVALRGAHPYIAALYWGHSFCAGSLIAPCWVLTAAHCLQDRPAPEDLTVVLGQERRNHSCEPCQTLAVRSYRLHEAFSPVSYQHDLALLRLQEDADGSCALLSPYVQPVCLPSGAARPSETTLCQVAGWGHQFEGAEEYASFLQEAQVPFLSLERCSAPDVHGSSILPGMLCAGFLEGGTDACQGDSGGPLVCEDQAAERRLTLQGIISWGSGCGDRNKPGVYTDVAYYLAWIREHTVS

[12] = growth suppression of beta-catenin-knockout colon cells, dose response, cell-based, HCT116, human colon tumor (AID 1045); format: functional;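 also: HCT116 colon tumor cells with beta catenin knocked out; cells exposed to compound for 60 hours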
[13] = test system: Streptococcus; test: Group A Streptococcus viability loss, dose response, counter-screen for streptokinase expression inhibitor project, luminescence, BacTiterGlo (AID 1915); format: functional, organism-based;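 also: potency for reduction of bacterial viability or growth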
[14] = growth suppression of PTEN-null colon cells, dose response, cell-based, HCT116 PTEN knockout (AID 1047); format: functional;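 also: HCT116 colon tumor cells with PTEN knocked out; cells exposed to compound for 60 hours before readout; potency for loss of cell viability measured by luminescence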
[15] = test system: Streptococcus sp. 'group A'; test: growth inhibition of control SK(-) GAS strain, dose response, counter-screen for streptokinase expression inhibitor project, luminescence, kanamycin, BacTiterGlo, confirmation (AID 1900); format: functional, organism-based
[16] = target: T4, Streptokinase A (Streptococcus pyogenes serotype M1, UniProt P10520); test: S. pyogenes streptokinase expression inhibitors, potency, dose response, plasminogen activation absorbance, OD405 (AID 1914); format: functional, Streptococcus pyogenes M1 GAS;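 also: secreted streptokinase activity via plasminogen activation per viability signal from cell pellet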
T4 sequence (P10520 whole entry): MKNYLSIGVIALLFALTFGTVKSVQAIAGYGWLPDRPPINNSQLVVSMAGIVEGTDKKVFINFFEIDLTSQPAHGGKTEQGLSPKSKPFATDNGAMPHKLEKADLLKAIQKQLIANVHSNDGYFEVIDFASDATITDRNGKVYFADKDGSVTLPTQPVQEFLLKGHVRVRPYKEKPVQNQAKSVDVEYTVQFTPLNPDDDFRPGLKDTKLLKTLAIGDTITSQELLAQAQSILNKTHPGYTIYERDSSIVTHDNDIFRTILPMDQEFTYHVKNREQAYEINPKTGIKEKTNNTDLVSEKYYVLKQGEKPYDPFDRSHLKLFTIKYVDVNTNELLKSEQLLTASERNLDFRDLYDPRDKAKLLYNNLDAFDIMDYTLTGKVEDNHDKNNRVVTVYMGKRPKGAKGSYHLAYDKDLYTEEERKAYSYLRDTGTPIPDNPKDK

[17] = target: T5, Short transient receptor potential channel 4 (Mus musculus, UniProt Q9QUQ5); test: TRPC4 positive allosteric modulators, dose response, cell-based, HEK293 TRPC4/mu-opioid, Fluo-4 calcium, EC20 DAMGO (AID 434941); format: functional
T5 sequence (Q9QUQ5 whole entry): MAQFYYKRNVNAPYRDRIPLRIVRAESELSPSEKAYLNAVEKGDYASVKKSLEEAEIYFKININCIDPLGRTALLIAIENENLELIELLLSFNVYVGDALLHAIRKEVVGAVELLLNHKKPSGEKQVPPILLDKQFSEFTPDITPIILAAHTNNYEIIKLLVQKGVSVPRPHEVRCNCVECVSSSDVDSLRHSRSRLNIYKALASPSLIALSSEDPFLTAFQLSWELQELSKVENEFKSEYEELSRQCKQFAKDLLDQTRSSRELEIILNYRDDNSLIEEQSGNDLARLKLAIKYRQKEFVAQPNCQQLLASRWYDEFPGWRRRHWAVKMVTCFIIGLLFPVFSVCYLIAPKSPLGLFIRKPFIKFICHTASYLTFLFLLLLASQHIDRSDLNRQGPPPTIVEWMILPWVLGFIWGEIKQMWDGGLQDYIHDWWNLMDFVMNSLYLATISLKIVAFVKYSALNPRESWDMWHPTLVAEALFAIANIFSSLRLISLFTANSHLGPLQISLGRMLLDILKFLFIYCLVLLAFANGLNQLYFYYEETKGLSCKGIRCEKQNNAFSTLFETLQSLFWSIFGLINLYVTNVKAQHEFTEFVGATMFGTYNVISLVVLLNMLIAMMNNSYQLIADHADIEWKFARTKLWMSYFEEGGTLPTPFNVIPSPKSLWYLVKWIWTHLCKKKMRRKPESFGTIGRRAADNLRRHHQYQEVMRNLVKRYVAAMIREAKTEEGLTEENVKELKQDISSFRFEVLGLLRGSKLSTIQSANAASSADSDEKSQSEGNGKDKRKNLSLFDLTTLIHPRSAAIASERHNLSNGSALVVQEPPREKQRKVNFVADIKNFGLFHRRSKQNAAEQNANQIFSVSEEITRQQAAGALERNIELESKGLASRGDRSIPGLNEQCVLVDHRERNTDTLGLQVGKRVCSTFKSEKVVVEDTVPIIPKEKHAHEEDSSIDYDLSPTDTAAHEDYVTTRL

[18] = target: T6, Corticotropin-releasing factor receptor 2/Corticotropin-releasing factor-binding protein (Homo sapiens, UniProt P24387+Q13324); test: activators of CRF receptor 2 with binding protein – uHTS hits, confirmation (AID 602473); format: functional; conditions: read-out: EC50_Mean
T6 sequence (Q13324 whole entry): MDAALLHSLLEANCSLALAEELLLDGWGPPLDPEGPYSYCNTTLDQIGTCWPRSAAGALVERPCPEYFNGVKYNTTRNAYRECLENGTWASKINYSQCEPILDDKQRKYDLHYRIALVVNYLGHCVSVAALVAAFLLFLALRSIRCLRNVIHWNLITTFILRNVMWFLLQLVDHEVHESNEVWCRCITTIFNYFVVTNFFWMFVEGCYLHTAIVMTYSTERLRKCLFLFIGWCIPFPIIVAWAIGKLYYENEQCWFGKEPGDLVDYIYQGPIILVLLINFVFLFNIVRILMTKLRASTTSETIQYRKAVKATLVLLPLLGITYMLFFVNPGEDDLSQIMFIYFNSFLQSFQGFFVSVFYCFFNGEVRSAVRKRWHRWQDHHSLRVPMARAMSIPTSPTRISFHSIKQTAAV
T6 sequence (P24387 whole entry): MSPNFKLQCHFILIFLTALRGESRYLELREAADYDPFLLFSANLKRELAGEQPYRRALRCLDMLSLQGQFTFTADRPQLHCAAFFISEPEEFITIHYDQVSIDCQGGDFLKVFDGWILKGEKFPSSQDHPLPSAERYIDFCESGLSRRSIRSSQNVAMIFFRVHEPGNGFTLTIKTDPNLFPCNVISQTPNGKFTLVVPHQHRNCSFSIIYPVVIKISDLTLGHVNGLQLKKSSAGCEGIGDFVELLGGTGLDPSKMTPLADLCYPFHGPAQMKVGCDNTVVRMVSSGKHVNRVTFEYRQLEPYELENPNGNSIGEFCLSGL

[19] = target: G-protein coupled receptor 55 (Homo sapiens, UniProt Q9Y2T6); test: SAR analysis of selective Agonists of GPR55 using an Image-Based Assay - Set 2. [Related pubchem assays (depositor defined):AID1961, AID1965]; format: functional
[20] = target: T7, Cannabinoid receptor 1 (Homo sapiens, UniProt P21554); test: SAR analysis of antagonists of the Cannabinoid Receptor 1 using an Image-Based Assay - Set 3. [Related pubchem assays (depositor defined):AID1961, AID1965]; format: functional
[21] = target: T8, G-protein coupled receptor 35 (Homo sapiens, UniProt Q9HC97); test: SAR analysis of Antagonists of the GPR35 Receptor using an Image-Based Assay - Set 4. [Related pubchem assays (depositor defined):[…]]; format: functional
[22] = target: T8, G-protein coupled receptor 35; test: SAR analysis of Agonists of the GPR35 Receptor using an Image-Based Assay - Set 3. [Related pubchem assays (depositor defined):AID1961, AID1965]; format: functional
[23] = target: T7, Cannabinoid receptor 1; test: SAR analysis of agonists of the Cannabinoid Receptor 1 using an Image-Based Assay - Set 3. [Related pubchem assays (depositor defined):AID1961, AID1965]; format: functional
[24] = target: T9, Cannabinoid receptor 2 (Homo sapiens, UniProt P34972); test: SAR analysis of agonists of the Cannabinoid Receptor 2 using an Image-Based Assay - Set 2. [Related pubchem assays (depositor defined):AID1961, AID1965]; format: functional
[25] = target: T9, Cannabinoid receptor 2; test: SAR analysis of antagonists of the Cannabinoid Receptor 2 using an Image-Based Assay - Set 2. [Related pubchem assays (depositor defined):AID1961, AID1965]; format: functional

T9 sequence (P34972 whole entry): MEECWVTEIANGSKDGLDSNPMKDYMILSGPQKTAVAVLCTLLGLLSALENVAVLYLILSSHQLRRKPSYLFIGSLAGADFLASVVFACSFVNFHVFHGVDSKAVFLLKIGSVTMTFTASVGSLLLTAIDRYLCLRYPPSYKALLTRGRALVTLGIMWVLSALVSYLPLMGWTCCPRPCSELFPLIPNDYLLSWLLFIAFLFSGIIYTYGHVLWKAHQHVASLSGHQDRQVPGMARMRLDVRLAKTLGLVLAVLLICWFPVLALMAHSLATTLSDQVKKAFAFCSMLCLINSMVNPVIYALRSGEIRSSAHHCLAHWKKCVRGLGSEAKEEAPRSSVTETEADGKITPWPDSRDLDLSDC
T7 sequence (P21554 whole entry): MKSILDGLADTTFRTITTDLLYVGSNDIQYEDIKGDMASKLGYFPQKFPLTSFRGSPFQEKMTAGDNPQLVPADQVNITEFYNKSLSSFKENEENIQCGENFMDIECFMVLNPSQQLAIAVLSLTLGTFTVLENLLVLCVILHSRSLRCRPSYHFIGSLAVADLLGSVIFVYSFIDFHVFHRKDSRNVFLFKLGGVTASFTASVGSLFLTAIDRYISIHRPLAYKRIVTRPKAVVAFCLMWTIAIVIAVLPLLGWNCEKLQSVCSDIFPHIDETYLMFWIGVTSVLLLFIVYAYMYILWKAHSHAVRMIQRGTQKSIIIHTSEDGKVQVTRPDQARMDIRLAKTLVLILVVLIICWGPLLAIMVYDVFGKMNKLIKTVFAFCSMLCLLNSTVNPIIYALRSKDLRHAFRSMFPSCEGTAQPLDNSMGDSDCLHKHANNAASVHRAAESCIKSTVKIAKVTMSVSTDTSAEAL
T8 sequence (Q9HC97 whole entry): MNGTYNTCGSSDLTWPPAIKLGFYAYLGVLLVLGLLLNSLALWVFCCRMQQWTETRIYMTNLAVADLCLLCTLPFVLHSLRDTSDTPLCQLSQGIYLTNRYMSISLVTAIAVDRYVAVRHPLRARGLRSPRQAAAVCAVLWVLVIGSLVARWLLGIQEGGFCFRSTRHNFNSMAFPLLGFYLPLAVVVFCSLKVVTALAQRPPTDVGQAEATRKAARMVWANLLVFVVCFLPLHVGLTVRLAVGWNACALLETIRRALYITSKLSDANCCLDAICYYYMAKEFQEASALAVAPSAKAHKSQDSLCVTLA
Sequence of Cytochrome P450 2C9 (P11712 whole entry, the tested form may be a part): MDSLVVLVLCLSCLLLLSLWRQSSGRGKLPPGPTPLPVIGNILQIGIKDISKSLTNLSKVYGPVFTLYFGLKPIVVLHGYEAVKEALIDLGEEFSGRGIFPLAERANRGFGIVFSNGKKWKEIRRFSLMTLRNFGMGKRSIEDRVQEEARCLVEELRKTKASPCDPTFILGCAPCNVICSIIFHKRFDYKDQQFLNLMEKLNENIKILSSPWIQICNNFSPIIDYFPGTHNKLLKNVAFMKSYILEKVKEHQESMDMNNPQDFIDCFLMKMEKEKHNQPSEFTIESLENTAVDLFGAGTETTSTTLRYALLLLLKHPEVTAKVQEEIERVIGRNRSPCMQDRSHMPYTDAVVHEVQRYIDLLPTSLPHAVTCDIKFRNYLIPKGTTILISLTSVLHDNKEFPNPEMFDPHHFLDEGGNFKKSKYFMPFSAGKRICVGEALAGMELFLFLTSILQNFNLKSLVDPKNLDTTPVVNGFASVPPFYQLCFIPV
Sequence of DNA dC->dU-editing enzyme APOBEC-3G (Q9HC16 whole entry): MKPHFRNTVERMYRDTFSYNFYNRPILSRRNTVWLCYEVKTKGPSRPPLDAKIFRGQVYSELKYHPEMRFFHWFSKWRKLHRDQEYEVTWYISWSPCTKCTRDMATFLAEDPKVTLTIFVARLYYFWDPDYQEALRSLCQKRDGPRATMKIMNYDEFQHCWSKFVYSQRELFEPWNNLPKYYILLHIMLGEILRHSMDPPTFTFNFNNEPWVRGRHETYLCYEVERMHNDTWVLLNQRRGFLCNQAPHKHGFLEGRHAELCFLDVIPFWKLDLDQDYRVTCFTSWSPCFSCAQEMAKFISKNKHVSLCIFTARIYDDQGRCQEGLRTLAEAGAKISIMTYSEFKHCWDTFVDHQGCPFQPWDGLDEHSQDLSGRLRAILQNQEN
Sequence of G-protein coupled receptor 55 (Q9Y2T6 whole entry): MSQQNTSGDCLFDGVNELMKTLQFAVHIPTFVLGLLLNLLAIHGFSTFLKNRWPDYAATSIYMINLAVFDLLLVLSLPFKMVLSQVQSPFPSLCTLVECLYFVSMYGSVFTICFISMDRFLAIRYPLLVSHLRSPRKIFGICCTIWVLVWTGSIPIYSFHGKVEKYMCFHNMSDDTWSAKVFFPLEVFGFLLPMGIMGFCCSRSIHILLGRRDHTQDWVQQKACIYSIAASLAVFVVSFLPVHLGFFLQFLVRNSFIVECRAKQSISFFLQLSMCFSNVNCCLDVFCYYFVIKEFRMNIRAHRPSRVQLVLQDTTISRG
Sequence of Dual specificity protein phosphatase 3 (P51452 whole entry): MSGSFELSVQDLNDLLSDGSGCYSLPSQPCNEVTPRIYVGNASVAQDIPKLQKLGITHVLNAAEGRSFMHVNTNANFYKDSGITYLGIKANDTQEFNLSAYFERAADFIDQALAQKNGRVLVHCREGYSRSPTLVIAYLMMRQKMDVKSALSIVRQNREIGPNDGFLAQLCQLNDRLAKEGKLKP
Sequence of DNA dC->dU-editing enzyme APOBEC-3A (P31941 whole entry): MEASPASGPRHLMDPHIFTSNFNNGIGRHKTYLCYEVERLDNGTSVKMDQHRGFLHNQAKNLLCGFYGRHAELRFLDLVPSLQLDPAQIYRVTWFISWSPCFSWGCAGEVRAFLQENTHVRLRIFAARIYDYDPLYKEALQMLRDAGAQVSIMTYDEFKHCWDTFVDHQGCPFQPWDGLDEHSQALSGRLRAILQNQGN
Sequence of Phosphomannomutase 2 (O15305 whole entry): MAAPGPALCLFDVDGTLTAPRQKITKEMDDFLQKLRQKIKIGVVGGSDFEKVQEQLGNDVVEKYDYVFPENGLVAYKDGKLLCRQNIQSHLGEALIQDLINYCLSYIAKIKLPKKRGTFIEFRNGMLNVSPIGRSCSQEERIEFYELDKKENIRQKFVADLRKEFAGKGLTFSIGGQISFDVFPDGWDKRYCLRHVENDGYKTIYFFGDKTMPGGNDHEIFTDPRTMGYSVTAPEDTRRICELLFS
Sequence of Perilipin-1/ABHD5 (Q8WTS1 whole entry, the tested form may be a part): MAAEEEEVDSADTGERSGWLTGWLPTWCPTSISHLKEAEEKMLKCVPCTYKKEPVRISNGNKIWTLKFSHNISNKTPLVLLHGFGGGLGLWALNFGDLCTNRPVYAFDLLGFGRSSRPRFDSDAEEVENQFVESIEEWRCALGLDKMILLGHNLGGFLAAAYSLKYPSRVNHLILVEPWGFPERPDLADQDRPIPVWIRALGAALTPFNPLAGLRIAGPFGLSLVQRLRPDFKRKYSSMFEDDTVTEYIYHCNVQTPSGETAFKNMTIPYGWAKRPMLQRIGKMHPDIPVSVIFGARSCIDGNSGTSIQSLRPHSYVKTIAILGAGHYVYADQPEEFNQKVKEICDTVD
Sequence of Perilipin-1/ABHD5 (O60240 whole entry, the tested form may be a part): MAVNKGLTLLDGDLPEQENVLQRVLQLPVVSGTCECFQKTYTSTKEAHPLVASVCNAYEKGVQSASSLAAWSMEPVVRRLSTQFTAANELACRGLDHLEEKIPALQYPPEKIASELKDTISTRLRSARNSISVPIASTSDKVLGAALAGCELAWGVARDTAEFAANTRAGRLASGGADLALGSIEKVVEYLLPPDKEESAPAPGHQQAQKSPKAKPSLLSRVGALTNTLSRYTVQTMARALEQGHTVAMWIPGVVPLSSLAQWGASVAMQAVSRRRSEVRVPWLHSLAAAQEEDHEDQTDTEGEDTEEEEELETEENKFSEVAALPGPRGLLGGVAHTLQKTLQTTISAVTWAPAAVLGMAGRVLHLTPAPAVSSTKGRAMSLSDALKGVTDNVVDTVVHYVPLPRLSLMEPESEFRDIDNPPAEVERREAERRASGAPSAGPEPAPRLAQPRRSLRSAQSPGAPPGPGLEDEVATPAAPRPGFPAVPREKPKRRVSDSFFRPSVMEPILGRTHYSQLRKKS
Sequence of 1-acylglycerol-3-phosphate O-acyltransferase ABHD5/Perilipin-5 (Q00G26 whole entry, the tested form may be a part): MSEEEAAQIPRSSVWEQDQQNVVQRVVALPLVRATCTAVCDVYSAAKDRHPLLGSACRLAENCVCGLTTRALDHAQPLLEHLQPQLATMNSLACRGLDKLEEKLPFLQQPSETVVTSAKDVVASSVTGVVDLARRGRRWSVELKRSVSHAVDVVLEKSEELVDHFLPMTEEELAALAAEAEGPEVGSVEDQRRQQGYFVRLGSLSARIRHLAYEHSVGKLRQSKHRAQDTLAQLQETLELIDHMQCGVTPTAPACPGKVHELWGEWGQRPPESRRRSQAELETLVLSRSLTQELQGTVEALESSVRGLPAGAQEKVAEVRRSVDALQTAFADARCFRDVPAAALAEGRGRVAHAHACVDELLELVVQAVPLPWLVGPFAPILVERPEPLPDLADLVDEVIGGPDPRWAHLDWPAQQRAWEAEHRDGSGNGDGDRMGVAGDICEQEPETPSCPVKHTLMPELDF
Sequence of 1-acylglycerol-3-phosphate O-acyltransferase ABHD5/Perilipin-5 (Q8WTS1 whole entry, the tested form may be a part): as the sequence (Q8WTS1 whole entry, the tested form may be a part) above

CN(C)c1cccc(/N=c2\ssnc2Cl)c1
IC50 [1]: > 100 µM (inactive)

CCc1ccc(OCC(=O)N/N=C\c2ccco2)c([N+](=O)[O-])c1
IC50 [2]: 39.8 µM (active) | IC50 [3]: 18.6 µM (active)

NS(=O)(=O)c1cc(C(=O)Nc2cccc(Cl)c2)ccc1Cl
IC50 [4]: > 100 µM (inactive) | IC50 [5]: > 100 µM (inactive) | IC50 [6]: > 100 µM (inactive)

CC1=CC(=O)c2ccccc2C1=O [MENADIONE]
IC50 [7]: 7.9 µM (active) | AC50 [8]: 6.31 µM (inconclusive) | IC50 [9]: 9.47 µM (active)

O=C(/C=C/c1nc2ccccc2s1)N1CCCCCC1
EC50 [10]: > 71.5 µM (inactive)

O=C(O)COc1ccc2c(c1)OCCO2
IC50 [11]: > 50 µM (inactive)

Cc1ccc(Cl)cc1N1CCN(C(=O)c2cccc3c(=O)c(C)c(-c4ccccc4)oc23)CC1
EC50 [12]: 9.86 µM (active) | EC50 [13]: > 150 µM (not active) | EC50 [14]: 8.26 µM (active) | EC50 [15]: 5.59 µM (active) | EC50 [16]: 16 µM (active) | EC50 [17]: 6.68 µM (active) | EC50 [18]: > 53 µM (inactive)

CCOc1ccccc1N1CCN(C(=O)c2cc(S(=O)(=O)N(C)C)ccc2N2CCCC2)CC1
EC50 [19]: > 32 µM (inactive) | IC50 [20]: > 32 µM (inactive) | IC50 [21]: > 32 µM (inactive) | EC50 [22]: > 32 µM (inactive) | EC50 [23]: > 32 µM (inactive) | EC50 [24]: > 32 µM (inactive) | IC50 [25]: > 32 µM (inactive)
